Common to all, as to type: cell-based
One test has as its system Candida krussii. Put plainly: Antifungal activity, microtiter broth dilution MIC. The following applies: Candida krussii strain 94-2; RPMI 1640, 35° C., 24-48 hours. Here is the method:
(§1) The antifungal activity for the ethers of 7-desmethylrapamycin of this invention was confirmed in a standard pharmacological test procedure which measured the ability of the compound being evaluated to inhibit fungal growth. 42-O-(2-Hydroxy)ethyl 7-desmethylrapamycin […] (Compound I) was evaluated as a representative compound of this invention. The procedure used and results obtained are briefly described below. A 96 U-bottom microtiter plate was filled (50 μl/well) with RPMI 1640. The compounds to be evaluated were placed in appropriate wells, and serial diluted in successive wells to provide 11 dilutions. The concentrations ranged from 64 through 0.06 μug/ml. An adjusted inoculum of fungi (50 μl) was added to each well and the plates were incubated at 35° C. for 24-48 hours. […] Nystatin and amphotericin B were used for the purpose of comparison.
A general note: In broth dilution the organism is exposed to a series of concentrations in liquid medium.

The next test concerns Candida parapsilosis. The test can be described thus: Antifungal activity, microtiter broth dilution MIC. The conditions noted are these: RPMI 1640, 35° C., 24-48 hours. As for the experimental part:
as §1

The subject of another test is Candida albicans. Put plainly: Antifungal activity, microtiter broth dilution MIC. The following applies: RPMI 1640, 35° C., 24-48 hours. Here is the method:
as §1

The subject of the next test is Candida rugosa. Put plainly: Antifungal activity, microtiter broth dilution MIC. The following applies: Candida rugosa strain 94-10; RPMI 1640, 35° C., 24-48 hours. Here is the method:
as §1

The subject of another test is Candida pseudotropicalis. The test can be described thus: Antifungal activity, microtiter broth dilution MIC. The following applies: Candida pseudotropicalis strain ATCC 28838; RPMI 1640, 35° C., 24-48 hours. As for the experimental part:
as §1

The next test has as its system Aspergillus niger. The test can be described thus: Antifungal activity, microtiter broth dilution MIC. The conditions noted are these: RPMI 1640, 35° C., 24-48 hours. Here is the method: as §1
A further test concerns Candida tropicalis. The test can be described thus: Antifungal activity, microtiter broth dilution MIC. The following applies: RPMI 1640, 35° C., 24-48 hours. As for the experimental part: as §1
The test system of the next test is Aspergillus fumigatus. The test can be described thus: Antifungal activity, microtiter broth dilution MIC. The conditions noted are these: Aspergillus fumigatus strain ATCC 26933; RPMI 1640, 35° C., 24-48 hours. Here is the method: as §1
Another test concerns Candida lusitaniae. Put plainly: Antifungal activity, microtiter broth dilution MIC. The following applies: Candida lusitaniae strain 94-3; RPMI 1640, 35° C., 24-48 hours. As for the experimental part: as §1
The subject of test [1] is U87MG human glioblastoma cells. Put plainly: Inhibition of U87MG human glioblastoma cell growth (3H-thymidine incorporation). The following applies: 48 hours incubation with compound. As for the experimental part:
The antineoplastic activity of the compounds of this invention were confirmed in a standard pharmacological test procedure which measures the inhibition of U87MG human glioblastoma cell growth (as a function of ^3H-thymidine incorporation), using 42-O-(2-hydroxy)ethyl 7-desmethylrapamycin (Compound I) as a representative compound of this invention. The following briefly describes the procedure used and results obtained. U87MG human glioblastoma cells (ATCC # HTB-14; available from the American Type Culture Collection; 10801 University Boulevard; Manassas, Va. 20110;), were grown in the following media.
Growth Medium: BRL Minimum Essential Medium with Earle Salts (500 mL)
+5 mL BRL MEM Non-Essential Amino Acids (10 mM)
+5 mL BRL Penicillin-Streptomycin (1 0000u/mL,1 0000 μg/mL)
+5 mL BRL Na Pyruvate Solution (100 mM)
+5 mL BRL L-Glutamine 200 mM
+50 mL BRL Fetal Bovine Serum (Qualified)
1. Cells were trypsinized and plated at a concentration of 10^4 cells/well in a final volume of 200 μL growth medium in 96-well flat bottom plates and allowed to adhere for 24 hours at 37° C.
2. The media was removed by aspiration with care to not disturb the cell monolayer. 200 μL of fresh growth media was added per well, allowing enough wells for samples to be run in triplicate. […]
4. […] Mats were counted in a Wallac Betaplate counter.
(Incorporation of labelled thymidine or its analogues reports DNA synthesis.)

[2] abbreviates: Candida parapsilosis strain 94-8.
Setting [3] is: Candida parapsilosis strain 94-9.
Where [4] appears, read: Candida parapsilosis strain ATCC 90018.
Where [5] appears, read: Candida albicans strain ATCC 90028.
The mark [6] stands for this setting: Candida tropicalis strain 94-13.
Where [7] appears, read: Candida tropicalis strain 94-14.

≈ marks a conversion by molar mass, not a printed value.

With `C[C@@H]1[C@H](O)[C@@H](C)/C=C/C=C/C=C/C=C/C=C/C=C/C=C/[C@H](O[C@@H]2O[C@H](C)[C@@H](O)[C@H](N)[C@@H]2O)C[C@@H]2O[C@](O)(C[C@@H](O)C[C@@H](O)[C@H](O)CC[C@@H](O)C[C@@H](O)CC(=O)O[C@H]1C)C[C@H](O)[C@H]2C(=O)O` [Amphotericin B, amphotericin B], the “ANTIFUNGAL ACTIVITY (MIC)” value in the test on Candida krussii was 0.12 µg/mL; with Candida parapsilosis (setting [2]), “≦0.06 μg/mL”; in the test with Candida parapsilosis (setting [3]), 0.12 µg/mL; in the test on Candida parapsilosis (setting [4]), “≦0.06 μg/mL”; in the test with Candida albicans (Candida albicans strain 1063) it was “≦0.06 μg/mL”; with Candida albicans (Candida albicans strain 1117), 0.12 µg/mL. In addition, the “ANTIFUNGAL ACTIVITY (MIC)” value in the test on Candida albicans (setting [5]) was 0.12 µg/mL; with Candida rugosa, 0.25 µg/mL; in the test on Candida pseudotropicalis, “≦0.06 μg/mL”; in the test with Aspergillus niger (Aspergillus niger strain S399) it was 0.50 µg/mL; in the test on Aspergillus niger (Aspergillus niger strain S430) it was 0.25 µg/mL; in the test with Candida tropicalis (setting [6]), “≦0.06 μg/mL”. For the same compound, the “ANTIFUNGAL ACTIVITY (MIC)” value was “≦0.06 μg/mL” in the test on Candida tropicalis (setting [7]), 0.25 µg/mL in the test on Aspergillus fumigatus and “≦0.06 μg/mL” in the test with Candida lusitaniae.
Take `CO[C@@H]1C[C@H](C[C@@H](C)[C@@H]2CC(=O)[C@H](C)/C=C(\C)[C@@H](O)[C@@H](OC)C(=O)[C@H](C)C[C@H](C)/C=C/C=C/C=C(\C)[C@@H](O)C[C@@H]3CC[C@@H](C)[C@@](O)(O3)C(=O)C(=O)N3CCCC[C@H]3C(=O)O2)CC[C@H]1OCCO` [Compound I, 42-O-(2-Hydroxy)ethyl 7-desmethyirapamycin]: the IC50 in [1] came to 0.0035 µg/mL (≈ 3.71 nM). The “ANTIFUNGAL ACTIVITY (MIC)” value in the test on Candida krussii turned out to be 0.5 µg/mL; in the test with Candida parapsilosis (setting [2]), 2 µg/mL; with Candida parapsilosis (setting [3]) it was 2 µg/mL; with Candida parapsilosis (setting [4]) it was 2 µg/mL; in the test on Candida albicans (Candida albicans strain 1063) it was 1 µg/mL; in the test with Candida albicans (Candida albicans strain 1117) it was 2 µg/mL. In addition, the “ANTIFUNGAL ACTIVITY (MIC)” value in the test with Candida albicans (setting [5]) came out at 2 µg/mL; in the test with Candida rugosa, 1 µg/mL; with Candida pseudotropicalis, 2 µg/mL; in the test on Aspergillus niger (Aspergillus niger strain S399), 64 µg/mL; with Aspergillus niger (Aspergillus niger strain S430), 64 µg/mL; with Candida tropicalis (setting [6]), 0.5 µg/mL. The “ANTIFUNGAL ACTIVITY (MIC)” value was 0.5 µg/mL with Candida tropicalis (setting [7]), 64 µg/mL in the test with Aspergillus fumigatus and 1 µg/mL in the test with Candida lusitaniae.
As for `C[C@@H]1[C@H](O)[C@@H](C)/C=C/C=C/CC/C=C/C=C/C=C/C=C/C(O[C@H]2O[C@H](C)[C@@H](O)[C@H](N)[C@@H]2O)CC2O[C@](O)(CC(O)C(O)CCC(O)CC(O)CC(O)CC(=O)O[C@H]1C)CC(O)C2C(=O)O` (stereo partly shown) [Nystatin], the “ANTIFUNGAL ACTIVITY (MIC)” value in the test on Candida krussii worked out at 1 µg/mL; in the test with Candida parapsilosis (setting [2]) it was 2 µg/mL; in the test with Candida parapsilosis (setting [3]), 1 µg/mL; in the test with Candida parapsilosis (setting [4]), 2 µg/mL; with Candida albicans (Candida albicans strain 1063), 1 µg/mL; in the test on Candida albicans (Candida albicans strain 1117), 1 µg/mL. The “ANTIFUNGAL ACTIVITY (MIC)” value in the test on Candida albicans (setting [5]) is 1 µg/mL; in the test with Candida rugosa, 1 µg/mL; with Candida pseudotropicalis, 1 µg/mL; with Aspergillus niger (Aspergillus niger strain S399), 2 µg/mL; in the test with Aspergillus niger (Aspergillus niger strain S430) it was 1 µg/mL; with Candida tropicalis (setting [6]), 1 µg/mL. For the same compound, the “ANTIFUNGAL ACTIVITY (MIC)” value was determined as 1 µg/mL in the test on Candida tropicalis (setting [7]), 2 µg/mL in the test with Aspergillus fumigatus and 1 µg/mL with Candida lusitaniae.

The IC50 is the concentration that gives 50% inhibition.

For the origin of these results see patent US6440991B1, “Ethers of 7-desmethlrapamycin” (Wyeth, priority 2000, dated 2002).
